{
  "source": "patent US9963442B2",
  "about": "“Pyridones as herbicides” (E I DU PONT DE NEMOURS AND COMPANY, priority 2014, dated 2018)",
  "assay_in_all_cases": "Test C postemergence",
  "assay_type_in_all_cases": "in vivo",
  "conditions_in_all_cases": "scale 0 to 100, 0 is no effect, 100 is complete control",
  "key": {"[1]": {"test_system": "waterhemp (common waterhemp, Amaranthus rudis)", "method_in_brief": "(§1)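 Visual rating on a 0–100 scale (100 = complete control) against untreated controls, 13–15 days after treatment in the greenhouse. Test chemical was formulated in a non-phytotoxic solvent with surfactant, applied to soil (loam/sand) at planting or to foliage of 1- to 4-leaf plants.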"}, "[2]": {"test_system": "corn (Zea mays)", "method_in_brief": "as §1"}, "[3]": {"test_system": "kochia (Kochia scoparia)", "method_in_brief": "as §1"}, "[4]": {"test_system": "barnyardgrass (Echinochloa crus-galli)", "method_in_brief": "as §1"}, "[5]": {"test_system": "oilseed rape (Brassica napus)", "method_in_brief": "as §1"}, "[6]": {"test_system": "giant foxtail (Setaria faberii)", "method_in_brief": "as §1"}, "[7]": {"test_system": "johnsongrass (Sorghum halepense)", "method_in_brief": "as §1"}, "[8]": {"test_system": "yellow nutsedge (Cyperus esculentus)", "method_in_brief": "as §1"}, "[9]": {"test_system": "velvetleaf (Abutilon theophrasti)", "method_in_brief": "as §1"}, "[10]": {"test_system": "Italian ryegrass (Lolium multiflorum)", "method_in_brief": "as §1"}, "[11]": {"test_system": "galium (catchweed bedstraw, Galium aparine)", "method_in_brief": "as §1"}, "[12]": {"test_system": "winter wheat (Triticum aestivum)", "method_in_brief": "as §1"}, "[13]": {"test_system": "ragweed (common ragweed, Ambrosia elatior)", "method_in_brief": "as §1"}, "[14]": {"test_system": "blackgrass (Alopecurus myosuroides)", "method_in_brief": "as §1"}, "[15]": {"test_system": "pigweed (Amaranthus retroflexus)", "method_in_brief": "as §1"}, "[16]": {"test_system": "large (Lg) crabgrass (Digitaria sanguinalis)", "method_in_brief": "as §1"}, "[17]": {"test_system": "morningglory (Ipomoea coccinea)", "method_in_brief": "as §1"}, "[18]": {"test_system": "chickweed (common chickweed, Stellaria media)", "method_in_brief": "as §1"}},
  "data": [
    {"smiles": "O=c1cccc(Oc2ncc(Cl)cn2)n1-c1ccc(C(F)(F)F)cc1", "note": "[Compound 10]", "values": [
      {"measurement": "Plant response rating, Waterhemp", "setting": "[1]; 16 g ai/ha", "result": 75},
      {"measurement": "Plant response rating, Waterhemp", "setting": "[1]; 31 g ai/ha", "result": 80},
      {"measurement": "Plant response rating, Waterhemp", "setting": "[1]; 62 g ai/ha", "result": 98},
      {"measurement": "Plant response rating, Waterhemp", "setting": "[1]; 125 g ai/ha", "result": 98},
      {"measurement": "Plant response rating, Corn", "setting": "[2]; 16 g ai/ha", "result": 20},
      {"measurement": "Plant response rating, Corn", "setting": "[2]; 31 g ai/ha", "result": 15},
      {"measurement": "Plant response rating, Corn", "setting": "[2]; 62 g ai/ha", "result": 25},
      {"measurement": "Plant response rating, Corn", "setting": "[2]; 125 g ai/ha", "result": 25},
      {"measurement": "Plant response rating, Kochia", "setting": "[3]; 16 g ai/ha", "result": 85},
      {"measurement": "Plant response rating, Kochia", "setting": "[3]; 31 g ai/ha", "result": 90},
      {"measurement": "Plant response rating, Kochia", "setting": "[3]; 62 g ai/ha", "result": 90},
      {"measurement": "Plant response rating, Kochia", "setting": "[3]; 125 g ai/ha", "result": 95},
      {"measurement": "Plant response rating, Barnyardgrass", "setting": "[4]; 16 g ai/ha", "result": 5},
      {"measurement": "Plant response rating, Barnyardgrass", "setting": "[4]; 31 g ai/ha", "result": 10},
      {"measurement": "Plant response rating, Barnyardgrass", "setting": "[4]; 62 g ai/ha", "result": 25},
      {"measurement": "Plant response rating, Barnyardgrass", "setting": "[4]; 125 g ai/ha", "result": 65},
      {"measurement": "Plant response rating, Oilseed Rape", "setting": "[5]; 16 g ai/ha", "result": 5},
      {"measurement": "Plant response rating, Oilseed Rape", "setting": "[5]; 31 g ai/ha", "result": 25},
      {"measurement": "Plant response rating, Oilseed Rape", "setting": "[5]; 62 g ai/ha", "result": 80},
      {"measurement": "Plant response rating, Oilseed Rape", "setting": "[5]; 125 g ai/ha", "result": 80},
      {"measurement": "Plant response rating, Foxtail, Giant", "setting": "[6]; 16 g ai/ha", "result": 10},
      {"measurement": "Plant response rating, Foxtail, Giant", "setting": "[6]; 31 g ai/ha", "result": 15},
      {"measurement": "Plant response rating, Foxtail, Giant", "setting": "[6]; 62 g ai/ha", "result": 10},
      {"measurement": "Plant response rating, Foxtail, Giant", "setting": "[6]; 125 g ai/ha", "result": 20},
      {"measurement": "Plant response rating, Johnsongrass", "setting": "[7]; 16 g ai/ha", "result": 5},
      {"measurement": "Plant response rating, Johnsongrass", "setting": "[7]; 31 g ai/ha", "result": 10},
      {"measurement": "Plant response rating, Johnsongrass", "setting": "[7]; 62 g ai/ha", "result": 10},
      {"measurement": "Plant response rating, Johnsongrass", "setting": "[7]; 125 g ai/ha", "result": 25},
      {"measurement": "Plant response rating, Nutsedge, Yellow", "setting": "[8]; 16 g ai/ha", "result": 5},
      {"measurement": "Plant response rating, Nutsedge, Yellow", "setting": "[8]; 31 g ai/ha", "result": 10},
      {"measurement": "Plant response rating, Nutsedge, Yellow", "setting": "[8]; 62 g ai/ha", "result": 15},
      {"measurement": "Plant response rating, Nutsedge, Yellow", "setting": "[8]; 125 g ai/ha", "result": 20},
      {"measurement": "Plant response rating, Velvetleaf", "setting": "[9]; 16 g ai/ha", "result": 15},
      {"measurement": "Plant response rating, Velvetleaf", "setting": "[9]; 31 g ai/ha", "result": 35},
      {"measurement": "Plant response rating, Velvetleaf", "setting": "[9]; 62 g ai/ha", "result": 60},
      {"measurement": "Plant response rating, Velvetleaf", "setting": "[9]; 125 g ai/ha", "result": 65},
      {"measurement": "Plant response rating, Ryegrass, Italian", "setting": "[10]; 16 g ai/ha", "result": 5},
      {"measurement": "Plant response rating, Ryegrass, Italian", "setting": "[10]; 31 g ai/ha", "result": 5},
      {"measurement": "Plant response rating, Ryegrass, Italian", "setting": "[10]; 62 g ai/ha", "result": 10},
      {"measurement": "Plant response rating, Ryegrass, Italian", "setting": "[10]; 125 g ai/ha", "result": 20},
      {"measurement": "Plant response rating, Galium", "setting": "[11]; 16 g ai/ha", "result": 45},
      {"measurement": "Plant response rating, Galium", "setting": "[11]; 31 g ai/ha", "result": 50},
      {"measurement": "Plant response rating, Galium", "setting": "[11]; 62 g ai/ha", "result": 75},
      {"measurement": "Plant response rating, Galium", "setting": "[11]; 125 g ai/ha", "result": 80},
      {"measurement": "Plant response rating, Wheat", "setting": "[12]; 16 g ai/ha", "result": 0},
      {"measurement": "Plant response rating, Wheat", "setting": "[12]; 31 g ai/ha", "result": 5},
      {"measurement": "Plant response rating, Wheat", "setting": "[12]; 62 g ai/ha", "result": 10},
      {"measurement": "Plant response rating, Wheat", "setting": "[12]; 125 g ai/ha", "result": 10},
      {"measurement": "Plant response rating, Ragweed", "setting": "[13]; 16 g ai/ha", "result": 25},
      {"measurement": "Plant response rating, Ragweed", "setting": "[13]; 31 g ai/ha", "result": 25},
      {"measurement": "Plant response rating, Ragweed", "setting": "[13]; 62 g ai/ha", "result": 60},
      {"measurement": "Plant response rating, Ragweed", "setting": "[13]; 125 g ai/ha", "result": 65},
      {"measurement": "Plant response rating, Blackgrass", "setting": "[14]; 16 g ai/ha", "result": 10},
      {"measurement": "Plant response rating, Blackgrass", "setting": "[14]; 31 g ai/ha", "result": 10},
      {"measurement": "Plant response rating, Blackgrass", "setting": "[14]; 62 g ai/ha", "result": 30},
      {"measurement": "Plant response rating, Blackgrass", "setting": "[14]; 125 g ai/ha", "result": 25},
      {"measurement": "Plant response rating, Pigweed", "setting": "[15]; 16 g ai/ha", "result": 70},
      {"measurement": "Plant response rating, Pigweed", "setting": "[15]; 31 g ai/ha", "result": 90},
      {"measurement": "Plant response rating, Pigweed", "setting": "[15]; 62 g ai/ha", "result": 80},
      {"measurement": "Plant response rating, Pigweed", "setting": "[15]; 125 g ai/ha", "result": 90},
      {"measurement": "Plant response rating, Crabgrass, Large", "setting": "[16]; 16 g ai/ha", "result": 25},
      {"measurement": "Plant response rating, Crabgrass, Large", "setting": "[16]; 31 g ai/ha", "result": 35},
      {"measurement": "Plant response rating, Crabgrass, Large", "setting": "[16]; 62 g ai/ha", "result": 60},
      {"measurement": "Plant response rating, Crabgrass, Large", "setting": "[16]; 125 g ai/ha", "result": 80},
      {"measurement": "Plant response rating, Morningglory", "setting": "[17]; 16 g ai/ha", "result": 50},
      {"measurement": "Plant response rating, Morningglory", "setting": "[17]; 31 g ai/ha", "result": 55},
      {"measurement": "Plant response rating, Morningglory", "setting": "[17]; 62 g ai/ha", "result": 70},
      {"measurement": "Plant response rating, Morningglory", "setting": "[17]; 125 g ai/ha", "result": 75},
      {"measurement": "Plant response rating, Chickweed", "setting": "[18]; 16 g ai/ha", "result": 70},
      {"measurement": "Plant response rating, Chickweed", "setting": "[18]; 31 g ai/ha", "result": 30},
      {"measurement": "Plant response rating, Chickweed", "setting": "[18]; 62 g ai/ha", "result": 70},
      {"measurement": "Plant response rating, Chickweed", "setting": "[18]; 125 g ai/ha", "result": 80}
    ]}
  ]
}
